Test results: patent US20050112573A1, “Method of detecting toxic substance” (priority 2001, published 2005)

Tested on: yeast genes (level of expressed mRNA)
Assay: DNA chip analysis of expressed mRNA of yeast genes after 2 h culture with a toxic chemical substance
Format: cell-based, Saccharomyces cerevisiae S288C
Conditions: for The level of expressed mRNA in the presence of chemical substance/ (ratio to absence of chemical substance): stress protein genes, DNA chip
Method: Yeast (Saccharomyces cerevtisiae S288C (α SUC2mal mel gap2 CUP1)) were cultured at 25° C. on YPD medium (yeast extract 1%, polypepton 2%, glucose 2%). One of toxic chemical substances was added to the cell at logarithmic growth phase, and the cell was further cultured for two hours. Cell was cultured without any chemical substance in the same condition, and was used as control. Concentrations of the chemical substances were defined to inhibit the growth of the yeast but not lead to death.
After the completion of cultivation, the culture was centrifuged to collect the cells. To the cells, sodium acetate buffer (50 mM sodium acetate, 10 mM EDTA, 1% SDS) was added, and the mixture was shaken at 65° C. for five minutes, followed by returning to room temperature, and obtaining the supernatant, which procedure was repeated two times. To the supernatant, ½ amount of a solution of phenol/chloroform was added, and the mixture was centrifuged to give a supernatant, which was added with an equal amount of chloroform, and the mixture was centrifuged to give a supernatant. To the supernatant, an equal amount of isopropanol containing 0.3 M sodium acetate was added, and the mixture was allowed to stand at room temperature for 30 minutes, after which the mixture was centrifuged to give a sediment of the whole RNAs. Seventy % ethanol was added to the sediment, and the mixture was again centrifuged to give a sediment, which was then dried and dissolved in water. mRNA was isolated from the whole RNAs as followings. In view of the fact that a poly A chain is attached to the 3′ terminus of mRNA, a polynucleotide having a poly T structure which was immobilized on the surface of latex beads was used to trap the mRNA, and then the mRNA was washed and eluted with spine column (Oligotex-dT30<Super>mRNA Purification Kit, Takara). Reverse transcription of the mRNA was conducted with a reverse transcriptase (Super Script II Reverse Transcriptase; catalogue No. 18064-014, GibcoBRL) using fluorescence-labeled nucleotides to give cDNAs that were introduced with Cy3-dUTP or Cy5-dUTP during the reverse transcription.
The labeled cDNAs were dissolved in TE buffer (10 mM Tris-HCl/1 mM EDTA, pH8.0), and the solution was dropped on the DNA chip containing the whole genes of yeast (DNA Chip Research Inc. Japan) so that the cDNAs were hybridized on the DNA chip at 65° C. for over 12 hours. The fluoresces intensity of the DNA chip was read with a scanner, and the ratio relative to the fluorescence intensity resulting from the absence of chemical substance was estimated as the following, which is shown in Tables 1 to 9: [formula]
In the Tables, “Intensity” indicated in the rightmost column is a value of the level of expressed mRNA of each gene in control cells as divided by the average level of the expressions of the whole genes.

COc1cc(CNC(=O)CCCCC=CC(C)C)ccc1O [(12), 8-methyl-N-vanillyl-6-nonenamide]
The level of expressed mRNA in the presence of chemical substance/The level of expressed mRNA in the absence of chemical substance (yeast gene YIL123W): 0.8
The level of expressed mRNA in the presence of chemical substance/The level of expressed mRNA in the absence of chemical substance (yeast gene YIL140W): 1.0
The level of expressed mRNA in the presence of chemical substance/The level of expressed mRNA in the absence of chemical substance (yeast gene YJL052W, two hours culture): 2.4
The level of expressed mRNA in the presence of chemical substance/ (in its absence), gene YJL070C (yeast gene YJL070C, ratio of DNA chip fluorescence intensity to that without chemical substance): 1.0
The level of expressed mRNA in the presence of chemical substance/The level of expressed mRNA in the absence of chemical substance (yeast gene YJL073W): 1.0
The level of expressed mRNA in the presence of chemical substance/The level of expressed mRNA in the absence of chemical substance (yeast gene YJL089W): 1.2
The level of expressed mRNA in the presence of chemical substance/ (ratio to absence), gene YJL096W (yeast gene YJL096W, mitochondria-located protein genes, 2 h culture with chemical): 1.0
The level of expressed mRNA in the presence of chemical substance/The level of expressed mRNA in the absence of chemical substance (yeast gene YJL116C): 1.1
The level of expressed mRNA in the presence of chemical substance/ (ratio to absence of chemical substance) (yeast gene YJL158C): 1.1
The level of expressed mRNA in the presence of chemical substance/ (in its absence), gene YJL167W (yeast gene YJL167W, ratio of DNA chip fluorescence intensity to that without chemical substance): 1.3
The level of expressed mRNA in the presence of chemical substance/ (ratio to absence), gene YJL180C (yeast gene YJL180C, mitochondria-located protein genes, 2 h culture with chemical): 0.8
The level of expressed mRNA in the presence of chemical substance/ (in its absence), gene YJL216C (yeast gene YJL216C, ratio of DNA chip fluorescence intensity to that without chemical substance): 1.0
The level of expressed mRNA in the presence of chemical substance/The level of expressed mRNA in the absence of chemical substance (yeast gene YJR004C): 0.8
The level of expressed mRNA in the presence of chemical substance/The level of expressed mRNA in the absence of chemical substance (yeast gene YJR086W): 0.8
The level of expressed mRNA in the presence of chemical substance/ (ratio to absence of chemical substance) (yeast gene YJR090C): 0.8
The level of expressed mRNA in the presence of chemical substance/The level of expressed mRNA in the absence of chemical substance (yeast gene YKL008C): 1.5
The level of expressed mRNA in the presence of chemical substance/The level of expressed mRNA in the absence of chemical substance (yeast gene YKL013C): 0.7
The level of expressed mRNA in the presence of chemical substance/The level of expressed mRNA in the absence of chemical substance (yeast gene YKL039W): 0.9
The level of expressed mRNA in the presence of chemical substance/The level of expressed mRNA in the absence of chemical substance (yeast gene YKL041W): 0.8
The level of expressed mRNA in the presence of chemical substance/The level of expressed mRNA in the absence of chemical substance (yeast gene YKL096W): 0.3
The level of expressed mRNA in the presence of chemical substance/ (ratio to absence of chemical substance) (yeast gene YKL164C): 0.8
The level of expressed mRNA in the presence of chemical substance/The level of expressed mRNA in the absence of chemical substance (yeast gene YKL165C): 2.4
The level of expressed mRNA in the presence of chemical substance/The level of expressed mRNA in the absence of chemical substance (yeast gene YKL193C): 0.9
The level of expressed mRNA in the presence of chemical substance/ (in its absence), gene YKR009C (yeast gene YKR009C, ratio of DNA chip fluorescence intensity to that without chemical substance): 1.0
The level of expressed mRNA in the presence of chemical substance/ (in its absence), gene YKR034W (yeast gene YKR034W, ratio of DNA chip fluorescence intensity to that without chemical substance): 0.7
The level of expressed mRNA in the presence of chemical substance/ (ratio to absence of chemical substance) (yeast gene YKR053C): 0.7
The level of expressed mRNA in the presence of chemical substance/ in its absence, gene YKR058W (yeast gene YKR058W, energy system protein genes, 2 h culture with the chemical, ratio to control without chemical): 0.9
The level of expressed mRNA in the presence of chemical substance/ (in its absence), gene YLR006C (yeast gene YLR006C, ratio of DNA chip fluorescence intensity to that without chemical substance): 0.7
The level of expressed mRNA in the presence of chemical substance/ (ratio to absence of chemical substance) (yeast gene YLR006C): 0.7
The level of expressed mRNA in the presence of chemical substance/The level of expressed mRNA in the absence of chemical substance (yeast gene YLR120C): 1.6
The level of expressed mRNA in the presence of chemical substance/The level of expressed mRNA in the absence of chemical substance (yeast gene YLR136C): 1.3
The level of expressed mRNA in the presence of chemical substance/The level of expressed mRNA in the absence of chemical substance (yeast gene YLR178C): 2.2
The level of expressed mRNA in the presence of chemical substance/The level of expressed mRNA in the absence of chemical substance (yeast gene YLR250W): 1.0
The level of expressed mRNA in the presence of chemical substance/ in its absence, gene YLR295C (yeast gene YLR295C, energy system protein genes, 2 h culture with the chemical, ratio to control without chemical): 0.5
The level of expressed mRNA in the presence of chemical substance/ (ratio to absence), gene YLR295C (yeast gene YLR295C, mitochondria-located protein genes, 2 h culture with chemical): 0.5
The level of expressed mRNA in the presence of chemical substance/The level of expressed mRNA in the absence of chemical substance (yeast gene YLR327C): 1.4
The level of expressed mRNA in the presence of chemical substance/ (in its absence), gene YLR351C (yeast gene YLR351C, ratio of DNA chip fluorescence intensity to that without chemical substance): 0.9
The level of expressed mRNA in the presence of chemical substance/The level of expressed mRNA in the absence of chemical substance (yeast gene YLR356W): 1.5
The level of expressed mRNA in the presence of chemical substance/The level of expressed mRNA in the absence of chemical substance (yeast gene YLR362W): 0.8
The level of expressed mRNA in the presence of chemical substance/ (in its absence), gene YLR375W (yeast gene YLR375W, ratio of DNA chip fluorescence intensity to that without chemical substance): 0.9
The level of expressed mRNA in the presence of chemical substance/The level of expressed mRNA in the absence of chemical substance (yeast gene YLR391W): 1.0
The level of expressed mRNA in the presence of chemical substance/The level of expressed mRNA in the absence of chemical substance (yeast gene YLR429W): 1.1
The level of expressed mRNA in the presence of chemical substance/ in its absence, gene YML129C (yeast gene YML129C, energy system protein genes, 2 h culture with the chemical, ratio to control without chemical): 0.8
The level of expressed mRNA in the presence of chemical substance/ (ratio to absence), gene YML129C (yeast gene YML129C, mitochondria-located protein genes, 2 h culture with chemical): 0.8
The level of expressed mRNA in the presence of chemical substance/The level of expressed mRNA in the absence of chemical substance (yeast gene YMR004W): 1.0
The level of expressed mRNA in the presence of chemical substance/ (ratio to absence), gene YMR023C (yeast gene YMR023C, mitochondria-located protein genes, 2 h culture with chemical): 0.7
The level of expressed mRNA in the presence of chemical substance/The level of expressed mRNA in the absence of chemical substance (yeast gene YMR094W): 0.9
The level of expressed mRNA in the presence of chemical substance/The level of expressed mRNA in the absence of chemical substance (yeast gene YMR104C): 1.0
The level of expressed mRNA in the presence of chemical substance/ (ratio to absence of chemical substance) (yeast gene YMR186W): 1.0
The level of expressed mRNA in the presence of chemical substance/The level of expressed mRNA in the absence of chemical substance (yeast gene YMR219W): 1.5
The level of expressed mRNA in the presence of chemical substance/The level of expressed mRNA in the absence of chemical substance (yeast gene YMR226C): 1.1
The level of expressed mRNA in the presence of chemical substance/ in its absence, gene YMR267W (yeast gene YMR267W, energy system protein genes, 2 h culture with the chemical, ratio to control without chemical): 0.8
The level of expressed mRNA in the presence of chemical substance/ (ratio to absence), gene YMR267W (yeast gene YMR267W, mitochondria-located protein genes, 2 h culture with chemical): 0.8
The level of expressed mRNA in the presence of chemical substance/ in its absence, gene YMR267W (yeast gene YMR267W, ratio of DNA chip fluorescence intensity to that without chemical substance): 0.8
The level of expressed mRNA in the presence of chemical substance/The level of expressed mRNA in the absence of chemical substance (yeast gene YMR275C): 0.7
The level of expressed mRNA in the presence of chemical substance/The level of expressed mRNA in the absence of chemical substance (yeast gene YMR276W): 1.2
The level of expressed mRNA in the presence of chemical substance/ (in its absence), gene YMR278W (yeast gene YMR278W, ratio of DNA chip fluorescence intensity to that without chemical substance): 1.0
The level of expressed mRNA in the presence of chemical substance/ (in its absence), gene YMR293C (yeast gene YMR293C, ratio of DNA chip fluorescence intensity to that without chemical substance): 0.9
